The target of experiment [1] is T1, HCV genotype 1b (BK) NS3 modified enzyme with a R155K mutation (Hepatitis C virus genotype 1b, UniProt P26663, R1181K).
T1 construct: HCV genotype 1b (BK) NS3 modified enzyme
Description: HCV NS3 protease time-resolved fluorescence (TRF) assay, genotype 1b R155K. It is filed as biochemical. Conditions: Ki 1b R155K. The essentials: (§1)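 Assay buffer: 50 mM HEPES pH 7.5, 150 mM NaCl, 0.1% PEG 8000, 0.15% Triton X-100. Ten-minute enzyme–inhibitor preincubation; substrate at 25 nM final; 6 h reaction, room temperature; signal/background set at 5-20 by enzyme amount.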

Experiment [2] has as its target HCV NS3 protease genotype 3a (3A-1) (Hepatitis C virus genotype 3a, UniProt Q81258). As to the kind of experiment: HCV NS3 protease time-resolved fluorescence (TRF) assay, genotype 3a. It is filed as biochemical. The note with it: Ki 3a. The method in brief:
as §1

Setting [3] is: genotype 1b (BK) NS3 R155K, single value.
[4] abbreviates: first of two values printed in the cell (not explained).
[5] abbreviates: second of two values printed in the cell (not explained).

The structures appear in SMILES notation.

For the molecule `C=C[C@@H]1C[C@]1(NC(=O)[C@@H]1C[C@@H]2CN1C(=O)[C@H](C(C)(C)C)NC(=O)O[C@@H]1C[C@H]1CCCCCc1c(nc3ccccc3c1O[C@@H]1C[C@H]3C[C@@H]1CN3CCOC)O2)C(=O)NS(=O)(=O)C1(C)CC1` [Example 231, (1aR,5S,8S,10R,22aR)-5-tert-butyl-N-[(1R,2S)-2-ethenyl-1-{[(1-methylcyclopropyl)sulfonyl]carbamoyl}cyclopropyl]-17-{[(1R,4R,5R)-2-(2-methoxyethyl)-2-azabicyclo[2.2.1]hept-5-yl]oxy}-3,6-dioxo-1,1a,3,4,5,6,9,10,18,19,20,21,22,22a-tetradecahydro-8H-7,10-methanocyclopropa[18,19][1,10,3,6] dioxadiazacyclononadecino[11,12-b]quinoline-8-carboxamide], the Ki (usually the dissociation constant of the complex between target and ligand, obtained from inhibition or displacement) in experiment [1] (setting [3]) was 0.13 nM; in experiment [2], 1.8 nM.

As for `C=C[C@@H]1C[C@]1(NC(=O)[C@@H]1C[C@@H]2CN1C(=O)[C@H](C(C)(C)C)NC(=O)O[C@@H]1C[C@H]1CCCCCc1c(nc3ccccc3c1OCC1CN(C(=O)OC(C)(C)C)C1)O2)C(=O)NS(=O)(=O)C1(C)CC1` [Example 142, tert-butyl 3-({[(1aR,5S,8S,10R, 22aR)-5-tert-butyl-8-{[(1R,2S)-2-ethenyl-1-{[(1-methylcyclopropyl)sulfonyl]carbamoyl}cyclopropyl]carbamoyl}-3,6-dioxo-1,1a,3,4,5,6,9,10,18,19,20,21,22,22a-tetradeca hydro-8H-7,10-methanocyclopropa[18,19][1,10,3,6]dioxadiazacyclononadecino [11,12-b]quinolin-17-yl]oxy}methyl) azetidine-1-carboxylate], the Ki in experiment [1] (setting [3]) worked out at 0.7 nM; in experiment [2], 15 nM.

`C=C[C@@H]1C[C@]1(NC(=O)[C@@H]1C[C@@H]2CN1C(=O)[C@H](C(C)(C)C)NC(=O)O[C@@H]1C[C@H]1CCCCCc1c(nc3c(F)cccc3c1OCCN1CCOCC1)O2)C(=O)NS(=O)(=O)C1(C)CC1` [Example 126, (1aR,5S,8S,10R,22aR)-5-tert-butyl-N-[(1R,2S)-2-ethenyl-1-{[(1-methylcyclopropyl)sulfonyl]carbamoyl}cyclopropyl]-13-fluoro-17-[2-(morpholin-4-yl)ethoxy]-3,6-dioxo-1,1a,3,4,5,6,9,10,18,19, 20,21,22,22a-tetradecahydro-8H-7,10-methanocyclopropa[18,19][1,10,3,6] dioxadiazacyclononadecino[11,12-b] quinoline-8-carboxamide]: the Ki stood at 0.4 nM in experiment [1] (setting [3]) and 7.7 nM in experiment [2].

Consider `C=C[C@@H]1C[C@]1(NC(=O)[C@@H]1C[C@@H]2CN1C(=O)[C@H](C(C)(C)C)NC(=O)O[C@@H]1C[C@H]1CCCCCc1c(nc3ccccc3c1OC1CC3CCC(C1)N3CCOC)O2)C(=O)NS(=O)(=O)C1(C)CC1` (single isomer, unassigned) [Example 280], for which the Ki was determined as 0.024 nM in experiment [1] (setting [4]), 0.28 nM in experiment [1] (setting [5]) and 4.65 nM in experiment [2].

Consider `C=C[C@@H]1C[C@]1(NC(=O)[C@@H]1C[C@@H]2CN1C(=O)[C@H](C(C)(C)C)NC(=O)O[C@]1(C)C[C@H]1CCCCCc1c(nc3ccccc3c1OCCN1CCOCC1)O2)C(=O)NS(=O)(=O)C1(C)CC1` [Example 101, (1aR,5S,8S,10R,22aR)-5-tert-butyl-N-[(1R,2S)-2-ethenyl-1-{[(1-methylcyclopropyl)sulfonyl]carbamoyl}cyclopropyl]-1a-methyl-17-[2-(morpholin-4-yl)ethoxy]-3,6-dioxo-1,1,a, 3,4,5,6,9,10,18,19,20,21,22,22a-tetradecahydro-8H-7,10-methano-cyclopropa[18,19][1,10,3,6]dioxa diazacyclononadecino[11,12-b] quinoline-8-carboxamide], for which the inhibition constant (Ki) in experiment [1] (setting [3]) stood at 0.09 nM; in experiment [2], 0.96 nM.

Regarding `C=C[C@@H]1C[C@]1(NC(=O)[C@@H]1C[C@@H]2CN1C(=O)[C@H](C(C)(C)C)NC(=O)O[C@@H]1CCC[C@H]1CC/C=C/Cc1c(nc3ccccc3c1OCCCO)O2)C(=O)NS(=O)(=O)C1CC1` [Example 70, (3aR,7S,10S,12R,21E,24aS)-7-tert-butyl-N-{(1R,2S)-1-[(cyclopropylsulfonyl)carbamoyl]-2-ethenylcyclopropyl}-19-(3-hydroxypropoxy)-5,8-dioxo-1,2,3,3a,5,6,7,8,11,12,20,23,24,24a-tetradecahydro-10H-9,12-methanocyclopenta[18,19][1,10,3,6]dioxadiazacyclononadecino[11,12-b]quinoline-10-carboxamide], the inhibition constant Ki in experiment [1] (setting [3]) came to 0.066 nM; in experiment [2], 0.59 nM.

Turning to `C=C[C@@H]1C[C@]1(NC(=O)[C@@H]1C[C@@H]2CN1C(=O)[C@H](C(C)(C)C)NC(=O)O[C@@H]1C[C@H]1CCCCCc1c(nc3ccccc3c1OCC1CCN(C)C1)O2)C(=O)NS(=O)(=O)C1(C)CC1` (stereo partly drawn) [Example 141, (1aR,5S,8S,10R,22aR)-5-tert-butyl-N-[(1R,2S)-2-ethenyl-1-{[(1-methylcyclopropyl)sulfonyl]carbamoyl}cyclopropyl]-17-[(1-methylpyrrolidin-3-yl)methoxy]-3,6-dioxo-1,1a,3,4,5,6,9,10,18,19,20,21,22,22a-tetradecahydro-8H-7,10-methanocyclopropa[18,19][1,10,3,6] dioxadiazacyclononadecino [11,12-b]quinoline-8-carboxamide], the results for the Ki in experiment [1] (setting [3]) and in experiment [2] were 0.066 nM and 0.33 nM, respectively.

`C=C[C@@H]1C[C@]1(NC(=O)[C@@H]1C[C@@H]2CN1C(=O)[C@H](C1CCCCC1)NC(=O)O[C@@H]1C[C@H]1CCCCCc1c(nc3ccccc3c1OCCCN1CCC(C(F)(F)F)CC1)O2)C(=O)NS(=O)(=O)C1(C)CC1` [Example 167]: the values for the inhibition constant Ki in experiment [1] (setting [3]) and in experiment [2] were 1.3 nM and 41 nM, respectively.

On to `C=C[C@@H]1C[C@]1(NC(=O)[C@@H]1C[C@@H]2CN1C(=O)[C@H](C(C)(C)C)NC(=O)O[C@@H]1C[C@H]1CCCCCc1c(nc3ccccc3c1OC1CC3CCC(C1)N3C(=O)OC(C)(C)C)O2)C(=O)NS(=O)(=O)C1(C)CC1` (single isomer, unassigned) [Example 278], for which the Ki in experiment [1] (setting [4]) worked out at 0.86 nM; in experiment [1] (setting [5]), 20 nM; in experiment [2], 740 nM.

Take `C=C[C@@H]1C[C@]1(NC(=O)[C@@H]1C[C@@H]2CN1C(=O)[C@H](C(C)(C)C)NC(=O)O[C@@H]1C[C@H]1CCCCCc1c(nc3ccccc3c1OCCCN1CCC(C)(O)C1)O2)C(=O)NS(=O)(=O)C1(C)CC1` (stereo partly drawn) [Example 209, (1aR,5S,8S,10R,22aR)-5-tert-butyl-N-[(1R,2S)-2-ethenyl-1-{[(1-methylcyclopropyl)sulfonyl]carbamoyl}cyclopropyl]-17-[3-(3-hydroxy-3-methylpyrrolidin-1-yl)propoxy]-3,6-dioxo-1,1a,3,4,5,6,9,10,18,19,20,21,22,22a-tetradeca hydro-8H-7,10-methanocyclopropa[18,19][1,10,3,6] dioxadiazacyclononadecino[11,12-b] quinoline-8-carboxamide]: the results for the Ki in experiment [1] (setting [3]) and in experiment [2] were 0.056 nM and 0.55 nM, respectively.

For `C=C[C@@H]1C[C@]1(NC(=O)[C@@H]1C[C@@H]2CN1C(=O)[C@H](C(C)(C)C)NC(=O)O[C@@H]1CCC[C@H]1CCCCCc1c(nc3ccccc3c1OCCN1CCOCC1)O2)C(=O)NS(=O)(=O)N(C)CCOC` [Example 111, (3aR,7S,10S,12R,24aR)-7-tert-butyl-N-[(1R,2S)-2-ethenyl-1-{[(2-methoxyethyl)(methyl)sulfamoyl]carbamoyl}cyclopropyl]-19-[2-(morpholin-4-yl)ethoxy]-5,8-dioxo-1,2,3,3a,5,6,7,8,11,12,20,21,22,23,24,24a-hexadecahydro-10H-9,12-methano-cyclopenta[18,19][1,10,3,6] dioxadiazacyclononadecino [11,12-b] quinoline-10-carboxamide], the figures for the inhibition constant (Ki) in experiment [1] (setting [3]) and in experiment [2] were 11 nM and 272 nM, respectively.

Turning to `C=C[C@@H]1C[C@]1(NC(=O)[C@@H]1C[C@@H]2CN1C(=O)[C@H](C1CCCC1)NC(=O)O[C@@H]1CCC[C@H]1CC/C=C/Cc1c(nc3ccc(Br)cc3c1O)O2)C(=O)NS(=O)(=O)C1CC1` [Example 22, (3aR,7S,10S,12R,21E,24aS)-17-bromo-7-cyclopentyl-N-{(1R,2S)-1-[(cyclopropylsulfonyl)carbamoyl]-2-ethenylcyclopropyl}-19-hydroxy-5,8-dioxo-1,2,3,3a,5,6,7,8,11,12,20,23,24,24a-tetradecahydro-10H-9,12-methanocyclopenta[18,19][1,10,3,6]dioxadiazacyclononadecino[11,12-b]quinoline-10-carboxamide], the Ki came to 0.33 nM in experiment [1] (setting [3]) and 9.3 nM in experiment [2].

For `C=C[C@@H]1C[C@]1(NC(=O)[C@@H]1C[C@@H]2CN1C(=O)[C@H](C(C)(C)C)NC(=O)O[C@@H]1CCC[C@H]1CC/C=C/Cc1c(nc3ccccc3c1OCCN1CCOCC1)O2)C(=O)NS(=O)(=O)C1CC1` [Example 51, (3aR,7S,10S,12R,21E,24aS)-7-tert-butyl-N-{(1R,2S)-1-[(cyclopropylsulfonyl)carbamoyl]-2-ethenylcyclopropyl}-19-[2-(morpholin-4-yl)ethoxy]-5,8-dioxo-1,2,3,3a,5,6,7,8,11,12, 20,23,24,24a-tetradeca hydro-10H-9,12-methanocyclopenta[18,19][1,10,3,6] dioxadiazacyclononadecino[11,12-b] quinoline-10-carboxamide], the inhibitory constant (Ki) worked out at 0.21 nM in experiment [1] (setting [3]) and 1.9 nM in experiment [2].
